In patent US6358885B1, “Substituted phenylheterocyclic herbicides” (Mississippi State University, priority 1992, dated 2002):

What was measured:
giant foxtail = test: Test B preemergence/postemergence greenhouse plant response rating 0 to 10; type: in vivo, Setaria faberii; details: 0 to 10 scale
Method in brief: (§1)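 Test chemicals were sprayed onto freshly planted seed and, concurrently, onto young plants between the one and four leaf stage. After a twelve- to sixteen-day greenhouse period, each species was visually compared with untreated controls.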

morningglory [1] = test: Test C preemergence/postemergence greenhouse plant response rating 0 to 100; type: in vivo, Ipomoea hederacea; details: POSTEMERGENCE; for Plant response rating, Morningglory: 0 to 100 scale
From the text: (§2) The compounds evaluated in this test were formulated in a non-phytoxic solvent and applied to the soil surface before plant seedlings emerged (preemergence application), to water that covered the soil surface (flood application), and to plants that were in the one-to-four leaf stage (postemergence application). A sandy loam soil was used for the preemergence and postemergence tests, while a silt loam soil was used in the flood test. Water depth was approximately 2.5 cm for the flood test and was maintained at this level for the duration of the test. Plant species in the preemergence and postemergence tests consisted of barley (Hordeum vulgare), bedstraw (Galium aparine), blackgrass (Alopecurus myosuroides), chickweed (Stellaria media), corn (Zea mays), cotton (Gossypium hirsutum), crabgrass (Digitaria sanguinalis), downy brome (Bromus tectorum), giant foxtail (Setaria faberii), lambsquarters (Chenopodium album), morningglory (Ipomoea hederacea), pigweed ([…]), rape (Brassica napus), ryegrass (Lolium multiflorum), sorghum (Sorghum bicolor), soybean (Glycine max), speedwell (Veronica persica), sugar beet (Beta vulgaris), velvetleaf (Abutilon theophrasti), wheat (Triticum aestivum), wild buckwheat (Polygonum convolvulus), and wild oat (Avena fatua). All plant species were planted one day before application of the compound for the preemergence portion-of this test. Plantings of these species were adjusted to produce plants of appropriate size for the post-emergence portion of the test. […] All plant species were grown using normal greenhouse practices. Visual evaluations of injury expressed on treated plants, when compared to untreated controls, were recorded approximately fourteen to twenty one days after application of the test compound. […] A dash (-) response means no test result.

velvetleaf = test: Test B preemergence/postemergence greenhouse plant response rating 0 to 10; type: in vivo, Abutilon theophrasti; details: 0 to 10 scale
Method in brief: as §1

barley = test: Test C preemergence/postemergence greenhouse plant response rating 0 to 100; type: in vivo, Hordeum vulgare; details: POSTEMERGENCE; for Plant response rating Barley Igri: 0 to 100 scale
From the text: as §2

cheatgrass = test: Test B preemergence/postemergence greenhouse plant response rating 0 to 10; type: in vivo, Bromus secalinus; details: 0 to 10 scale
Method in brief: as §1

rape = test: as above; type: in vivo, Brassica napus; details: 0 to 10 scale
Method in brief: as §1

corn = test: as above; type: in vivo, Zea mays; details: 0 to 10 scale
Method in brief: as §1

lambsquarters = test: Test C preemergence/postemergence greenhouse plant response rating 0 to 100; type: in vivo, Chenopodium album; details: POSTEMERGENCE; for Plant response rating Lambsquarters: 0 to 100 scale
From the text: as §2

barnyardgrass = test: Test B preemergence/postemergence greenhouse plant response rating 0 to 10; type: in vivo, Echinochloa crus-galli; details: 0 to 10 scale
Method in brief: as §1

soybean = test: Test C preemergence/postemergence greenhouse plant response rating 0 to 100; type: in vivo, Glycine max; details: POSTEMERGENCE; for Plant response rating, Soybean: 0 to 100 scale
From the text: as §2

morningglory [2] = test: Test B preemergence/postemergence greenhouse plant response rating 0 to 10; type: in vivo, Ipomoea hederacea; details: 0 to 10 scale
Method in brief: as §1

chickweed = test: as above; type: in vivo, Stellaria media; details: 0 to 10 scale
Method in brief: as §1

crabgrass = test: as above; type: in vivo, Digitaria spp.; details: 0 to 10 scale
Method in brief: as §1

C=CCN1C(=O)COc2cc(F)c(-c3nn4c(c3Br)CCCC4)cc21 [Compound 41]
Plant response rating, Giant foxtail (giant foxtail; POSTEMERGENCE, Rate 50 g/ha): 4
Plant response rating, Giant foxtail (giant foxtail; PREEMERGENCE, Rate 50 g/ha): 1
Plant response rating, Giant foxtail (giant foxtail; Rate 200 g/ha, POSTEMERGENCE): 5
Plant response rating, Giant foxtail (giant foxtail; Rate 200 g/ha, PREEMERGENCE): 3
Plant response rating, Morningglory (morningglory [1]; 62 g/ha): 100
Plant response rating, Morningglory (morningglory [1]; 125 g/ha): 100
Plant response rating (0 to 100), Morningglory (morningglory [1]; Rate 16 g/ha): 70
Plant response rating (0 to 100), Morningglory (morningglory [1]; Rate 31 g/ha): 100
Plant response rating, Velvetleaf (velvetleaf; POSTEMERGENCE, Rate 50 g/ha): 10
Plant response rating, Velvetleaf (velvetleaf; PREEMERGENCE, Rate 50 g/ha): 2
Plant response rating, Velvetleaf (velvetleaf; Rate 200 g/ha, POSTEMERGENCE): 10
Plant response rating, Velvetleaf (velvetleaf; Rate 200 g/ha, PREEMERGENCE): 10
Plant response rating Barley Igri (barley; 62 g/ha): 50
Plant response rating Barley Igri (barley; 125 g/ha): 60
Plant response rating (0 to 100), Barley Igri (barley; Rate 16 g/ha): 30
Plant response rating (0 to 100), Barley Igri (barley; Rate 31 g/ha): 40
Plant response rating, Cheatgrass (cheatgrass; POSTEMERGENCE, Rate 50 g/ha): 3
Plant response rating, Cheatgrass (cheatgrass; POSTEMERGENCE, Rate 200 g/ha): 5
Plant response rating, Cheatgrass (cheatgrass; PREEMERGENCE, Rate 50 g/ha): 3
Plant response rating, Cheatgrass (cheatgrass; Rate 200 g/ha, PREEMERGENCE): 5
Plant response rating, Rape (rape; POSTEMERGENCE, Rate 50 g/ha): 10
Plant response rating, Rape (rape; PREEMERGENCE, Rate 50 g/ha): 10
Plant response rating, Rape (rape; Rate 200 g/ha, POSTEMERGENCE): 10
Plant response rating, Rape (rape; Rate 200 g/ha, PREEMERGENCE): 10
Plant response rating, Corn (corn; POSTEMERGENCE, Rate 200 g/ha): 5
Plant response rating, Corn (corn; PREEMERGENCE, Rate 50 g/ha): 0
Plant response rating, Corn (corn; Rate 200 g/ha, PREEMERGENCE): 2
Plant response rating Lambsquarters (lambsquarters; 62 g/ha): 100
Plant response rating Lambsquarters (lambsquarters; 125 g/ha): 100
Plant response rating (0 to 100), Lambsquarters (lambsquarters; Rate 16 g/ha): 85
Plant response rating (0 to 100), Lambsquarters (lambsquarters; Rate 31 g/ha): 100
Plant response rating, Barnyardgrass (barnyardgrass; POSTEMERGENCE, Rate 50 g/ha): 3
Plant response rating, Barnyardgrass (barnyardgrass; POSTEMERGENCE, Rate 200 g/ha): 6
Plant response rating, Barnyardgrass (barnyardgrass; PREEMERGENCE, Rate 50 g/ha): 4
Plant response rating, Barnyardgrass (barnyardgrass; Rate 200 g/ha, PREEMERGENCE): 6
Plant response rating, Soybean (soybean; 62 g/ha): 70
Plant response rating, Soybean (soybean; 125 g/ha): 100
Plant response rating (0 to 100), Soybean (soybean; Rate 16 g/ha): 60
Plant response rating (0 to 100), Soybean (soybean; Rate 31 g/ha): 70
Plant response rating, Morningglory (morningglory [2]; POSTEMERGENCE, Rate 50 g/ha): 9
Plant response rating, Morningglory (morningglory [2]; PREEMERGENCE, Rate 50 g/ha): 0
Plant response rating, Morningglory (morningglory [2]; Rate 200 g/ha, POSTEMERGENCE): 10
Plant response rating, Morningglory (morningglory [2]; Rate 200 g/ha, PREEMERGENCE): 7
Plant response rating, Chickweed (chickweed; POSTEMERGENCE, Rate 50 g/ha): 10
Plant response rating, Chickweed (chickweed; POSTEMERGENCE, Rate 200 g/ha): 10
Plant response rating, Chickweed (chickweed; PREEMERGENCE, Rate 50 g/ha): 10
Plant response rating, Chickweed (chickweed; Rate 200 g/ha, PREEMERGENCE): 10
Plant response rating, Crabgrass (crabgrass; POSTEMERGENCE, Rate 50 g/ha): 3
Plant response rating, Crabgrass (crabgrass; POSTEMERGENCE, Rate 200 g/ha): 5
Plant response rating, Crabgrass (crabgrass; PREEMERGENCE, Rate 50 g/ha): 0
Plant response rating, Crabgrass (crabgrass; Rate 200 g/ha, PREEMERGENCE): 6

CCOC(=O)COc1cc(-c2nn3c(c2Cl)CCCC3)c(F)cc1Cl [Compound 42]
Plant response rating, Giant foxtail (giant foxtail; POSTEMERGENCE, Rate 50 g/ha): 3
Plant response rating, Giant foxtail (giant foxtail; PREEMERGENCE, Rate 50 g/ha): 0
Plant response rating, Giant foxtail (giant foxtail; Rate 200 g/ha, POSTEMERGENCE): 4
Plant response rating, Giant foxtail (giant foxtail; Rate 200 g/ha, PREEMERGENCE): 0
Plant response rating, Morningglory (morningglory [1]; 62 g/ha): 100
Plant response rating, Morningglory (morningglory [1]; 125 g/ha): 100
Plant response rating (0 to 100), Morningglory (morningglory [1]; Rate 16 g/ha): 90
Plant response rating (0 to 100), Morningglory (morningglory [1]; Rate 31 g/ha): 95
Plant response rating, Velvetleaf (velvetleaf; POSTEMERGENCE, Rate 50 g/ha): 10
Plant response rating, Velvetleaf (velvetleaf; PREEMERGENCE, Rate 50 g/ha): 0
Plant response rating, Velvetleaf (velvetleaf; Rate 200 g/ha, POSTEMERGENCE): 10
Plant response rating, Velvetleaf (velvetleaf; Rate 200 g/ha, PREEMERGENCE): 6
Plant response rating Barley Igri (barley; 62 g/ha): 30
Plant response rating Barley Igri (barley; 125 g/ha): 40
Plant response rating (0 to 100), Barley Igri (barley; Rate 16 g/ha): 20
Plant response rating (0 to 100), Barley Igri (barley; Rate 31 g/ha): 30
Plant response rating, Cheatgrass (cheatgrass; POSTEMERGENCE, Rate 50 g/ha): 1
Plant response rating, Cheatgrass (cheatgrass; POSTEMERGENCE, Rate 200 g/ha): 3
Plant response rating, Cheatgrass (cheatgrass; PREEMERGENCE, Rate 50 g/ha): 0
Plant response rating, Cheatgrass (cheatgrass; Rate 200 g/ha, PREEMERGENCE): 0
Plant response rating, Rape (rape; POSTEMERGENCE, Rate 50 g/ha): 9
Plant response rating, Rape (rape; PREEMERGENCE, Rate 50 g/ha): 2
Plant response rating, Rape (rape; Rate 200 g/ha, POSTEMERGENCE): 10
Plant response rating, Rape (rape; Rate 200 g/ha, PREEMERGENCE): 3
Plant response rating, Corn (corn; POSTEMERGENCE, Rate 50 g/ha): 7
Plant response rating, Corn (corn; POSTEMERGENCE, Rate 200 g/ha): 9
Plant response rating, Corn (corn; PREEMERGENCE, Rate 50 g/ha): 0
Plant response rating, Corn (corn; Rate 200 g/ha, PREEMERGENCE): 0
Plant response rating Lambsquarters (lambsquarters; 62 g/ha): 100
Plant response rating Lambsquarters (lambsquarters; 125 g/ha): 100
Plant response rating (0 to 100), Lambsquarters (lambsquarters; Rate 16 g/ha): 100
Plant response rating (0 to 100), Lambsquarters (lambsquarters; Rate 31 g/ha): 100
Plant response rating, Barnyardgrass (barnyardgrass; POSTEMERGENCE, Rate 50 g/ha): 5
Plant response rating, Barnyardgrass (barnyardgrass; POSTEMERGENCE, Rate 200 g/ha): 8
Plant response rating, Barnyardgrass (barnyardgrass; PREEMERGENCE, Rate 50 g/ha): 0
Plant response rating, Barnyardgrass (barnyardgrass; Rate 200 g/ha, PREEMERGENCE): 0
Plant response rating, Soybean (soybean; 62 g/ha): 60
Plant response rating, Soybean (soybean; 125 g/ha): 80
Plant response rating (0 to 100), Soybean (soybean; Rate 16 g/ha): 20
Plant response rating (0 to 100), Soybean (soybean; Rate 31 g/ha): 40
Plant response rating, Morningglory (morningglory [2]; POSTEMERGENCE, Rate 50 g/ha): 9
Plant response rating, Morningglory (morningglory [2]; PREEMERGENCE, Rate 50 g/ha): 0
Plant response rating, Morningglory (morningglory [2]; Rate 200 g/ha, POSTEMERGENCE): 10
Plant response rating, Morningglory (morningglory [2]; Rate 200 g/ha, PREEMERGENCE): 3
Plant response rating, Chickweed (chickweed; POSTEMERGENCE, Rate 50 g/ha): 4
Plant response rating, Chickweed (chickweed; POSTEMERGENCE, Rate 200 g/ha): 8
Plant response rating, Chickweed (chickweed; PREEMERGENCE, Rate 50 g/ha): 0
Plant response rating, Chickweed (chickweed; Rate 200 g/ha, PREEMERGENCE): 0
Plant response rating, Crabgrass (crabgrass; POSTEMERGENCE, Rate 50 g/ha): 2
Plant response rating, Crabgrass (crabgrass; POSTEMERGENCE, Rate 200 g/ha): 3
Plant response rating, Crabgrass (crabgrass; PREEMERGENCE, Rate 50 g/ha): 0
Plant response rating, Crabgrass (crabgrass; Rate 200 g/ha, PREEMERGENCE): 0
